The subject of the assay is JAK1-dependent STAT6 phosphorylation downstream of IL-13 stimulation in TF-1 human erythroleukemia cells. The assay is described as follows: cells. To be noted: TF-1, read-out: IL-13-pSTAT6 IC50.
Regarding `O=C(CCC(F)(F)F)N1CC=C(c2cccn3nc(Nc4ccc(C(=O)N5CCCC56CCNCC6)cc4)nc23)CC1` [Example 2-258, 1-[4-[2-[4-(1,8-diazaspiro[4.5]decane-1-carbonyl)anilino]-[1,2,4]triazolo[1,5-a]pyridin-8-yl]-3,6-dihydro-2H-pyridin-1-yl]-4,4,4-trifluoro-butan-1-one], the concentration for half-maximal inhibition (IC50) is 238 nM. Regarding `CN1CCOC2(C1)CN(C(=O)c1ccc(Nc3nc4c(C5=CCN(C(=O)CCC(F)(F)F)CC5)cccn4n3)cc1)C2` [Example 2-259, 4,4,4-trifluoro-1-[4-[2-[4-(8-methyl-5-oxa-2,8-diazaspiro[3.5]nonane-2-carbonyl)anilino]-[1,2,4]triazolo[1,5-a]pyridin-8-yl]-3,6-dihydro-2H-pyridin-1-yl]butan-1-one], the IC50 was 5.8 nM. The result for `O=C(CCC(F)(F)F)N1CC=C(c2cccn3nc(Nc4ccc(C(=O)N5CCN(C6CCC6)CC5)cc4)nc23)CC1` [Example 2-260, 1-[4-[2-[4-(4-cyclobutylpiperazine-1-carbonyl)anilino]-[1,2,4]triazolo[1,5-a]pyridin-8-yl]-3,6-dihydro-2H-pyridin-1-yl]-4,4,4-trifluoro-butan-1-one] reads 5.3 nM. For `CN(C)C(=O)C1(c2ccncc2)CCCN1C(=O)c1ccc(Nc2nc3c(C4=CCN(C(=O)CCC(F)(F)F)CC4)cccn3n2)cc1` (stereo not shown) [Example 2-261, N,N-dimethyl-2-(4-pyridyl)-1-[4-[[8-[1-(4,4,4-trifluorobutanoyl)-3,6-dihydro-2H-pyridin-4-yl]-[1,2,4]triazolo[1,5-a]pyridin-2-yl]amino]benzoyl] pyrrolidine-2-carboxamide], the IC50 amounted to 46.5 nM.

As for `CN1CCN(C(=O)C2COCCN2C(=O)c2ccc(Nc3nc4c(C5=CCN(C(=O)CCC(F)(F)F)CC5)cccn4n3)cc2)CC1` (stereo not shown) [Example 2-262, 4,4,4-trifluoro-1-[4-[2-[4-[3-(4-methylpiperazine-1-carbonyl)morpholine-4-carbonyl]anilino]-[1,2,4]triazolo[1,5-a]pyridin-8-yl]-3,6-dihydro-2H-pyridin-1-yl]butane-1-one], the concentration for half-maximal inhibition (IC50) is 97.1 nM. On to `CC1CC(C(=O)N2CC=C(c3cccn4nc(Nc5ccc(C(=O)N(C)C6CCN(C)CC6)cc5)nc34)CC2)C1` (stereo not shown) [Example 2-263, N-methyl-4-[[8-[1-(3-methylcyclobutanecarbonyl)-3,6-dihydro-2H-pyridin-4-yl]-[1,2,4]triazolo[1,5-a]pyridin-2-yl]amino]-N-(1-methyl-4-piperidyl)benzamide], for which the IC50 worked out at 29.6 nM. Take `CN1CCC(OC(=O)c2ccc(Nc3nc4c(C5=CCN(C(=O)CCC(F)(F)F)CC5)cccn4n3)cc2)CC1` [Example 2-264, (1-methyl-4-piperidyl) 4-[[8-[1-(4,4,4-trifluorobutanoyl)-3,6-dihydro-2H-pyridin-4-yl]-[1,2,4]triazolo[1,5-a]pyridin-2-yl]amino]benzoate]: the 50% inhibitory concentration (IC50) amounted to 11.7 nM.

Consider `O=C(CCC(F)(F)F)N1CC=C(c2cccn3nc(Nc4ccc(C(=O)N5CCCCC5Cc5ccccn5)cc4)nc23)CC1` (stereo not shown) [Example 2-265, 4,4,4-trifluoro-1-[4-[2-[4-[2-(2-pyridylmethyl)piperidine-1-carbonyl]anilino]-[1,2,4]triazolo[1,5-a]pyridin-8-yl]-3,6-dihydro-2H-pyridin-1-yl]butan-1-one], for which the IC50 is 4.2 nM. `CC(C)CN1CCN(C(=O)c2ccc(Nc3nc4c(C5=CCN(C(=O)CCC(F)(F)F)CC5)cccn4n3)cc2)CC1` [Example 2-266, 4,4,4-trifluoro-1-[4-[2-[4-(4-isobutylpiperazine-1-carbonyl)anilino]-[1,2,4]triazolo[1,5-a]pyridin-8-yl]-3,6-dihydro-2H-pyridin-1-yl]butan-1-one]: the IC50 was 9.7 nM. Take `CN1CCC(N(C)C(=O)c2ccc(Nc3nc4c(C5=CCN(C(=O)CCC(F)(F)F)CC5)cccn4n3)cc2)C1` (stereo not shown) [Example 2-267, N-methyl-N-(1-methylpyrrolidin-3-yl)-4-[[8-[1-(4,4,4-trifluorobutanoyl)-3,6-dihydro-2H-pyridin-4-yl]-[1,2,4]triazolo[1,5-a]pyridin-2-yl]amino]benzamide]: the IC50 was found to be 8.7 nM. Regarding `CC1CC(C)CN(CCNC(=O)c2ccc(Nc3nc4c(C5=CCN(C(=O)CCC(F)(F)F)CC5)cccn4n3)cc2)C1` (stereo not shown) [Example 2-269, N-[2-(3,5-dimethyl-1-piperidyl)ethyl]-4-[[8-[1-(4,4,4-trifluorobutanoyl)-3,6-dihydro-2H-pyridin-4-yl]-[1,2,4]triazolo[1,5-a]pyridin-2-yl]amino]benzamide], the IC50 is 5.1 nM. On to `CN1CCN(CCNC(=O)c2ccc(Nc3nc4c(C5=CCN(C(=O)CCC(F)(F)F)CC5)cccn4n3)cc2)CC1` [Example 2-270, N-[2-(4-methylpiperazin-1-yl)ethyl]-4-[[8-[1-(4,4,4-trifluorobutanoyl)-3,6-dihydro-2H-pyridin-4-yl]-[1,2,4]triazolo[1,5-a]pyridin-2-yl]amino]benzamide], for which the IC50 stood at 16.4 nM. Regarding `O=C(CCC(F)(F)F)N1CC=C(c2cccn3nc(Nc4ccc(C(=O)N5CCCC5c5ccncc5)cc4)nc23)CC1` (stereo not shown) [Example 2-273, 4,4,4-trifluoro-1-[4-[2-[4-[2-(4-pyridyl)pyrrolidine-1-carbonyl]anilino]-[1,2,4]triazolo[1,5-a]pyridin-8-yl]-3,6-dihydro-2H-pyridin-1-yl]butan-1-one], the IC50 amounted to 5.5 nM.

For the molecule `CN1CCC(CCNC(=O)c2ccc(Nc3nc4c(C5=CCN(C(=O)CCC(F)(F)F)CC5)cccn4n3)cc2)CC1` [Example 2-274, N-[2-(1-methyl-4-piperidyl)ethyl]-4-[[8-[1-(4,4,4-trifluorobutanoyl)-3,6-dihydro-2H-pyridin-4-yl]-[1,2,4]triazolo[1,5-a]pyridin-2-yl]amino]benzamide], the IC50 was found to be 45 nM. Turning to `CNC(=O)C1CN(C(=O)c2ccc(Nc3nc4c(C5=CCN(C(=O)CCC(F)(F)F)CC5)cccn4n3)cc2)CCN1C` (stereo not shown) [Example 2-275, N,1-dimethyl-4-[4-[[8-[1-(4,4,4-trifluorobutanoyl)-3,6-dihydro-2H-pyridin-4-yl]-[1,2,4]triazolo[1,5-a]pyridin-2-yl]amino]benzoyl] piperazine-2-carboxamide], the IC50 was found to be 37.2 nM. Take `CNC(=O)C1CN(C)CCN1C(=O)c1ccc(Nc2nc3c(C4=CCN(C(=O)CCC(F)(F)F)CC4)cccn3n2)cc1` (stereo not shown) [Example 2-276, N,4-dimethyl-1-[4-[[8-[1-(4,4,4-trifluorobutanoyl)-3,6-dihydro-2H-pyridin-4-yl]-[1,2,4]triazolo[1,5-a]pyridin-2-yl]amino]benzoyl] piperazine-2-carboxamide]: the concentration for half-maximal inhibition (IC50) amounted to 129 nM. For `O=C(CCC(F)(F)F)N1CC=C(c2cccn3nc(Nc4ccc(C(=O)N5CCC(Cc6cccnc6)CC5)cc4)nc23)CC1` [Example 2-277, 4,4,4-trifluoro-1-[4-[2-[4-[4-(3-pyridylmethyl)piperidine-1-carbonyl]anilino]-[1,2,4]triazolo[1,5-a]pyridin-8-yl]-3,6-dihydro-2H-pyridin-1-yl]butan-1-one], the IC50 is 19.8 nM.

Turning to `O=C(CCC(F)(F)F)N1CC=C(c2cccn3nc(Nc4ccc(C(=O)N5CCCN(c6ccncc6)CC5)cc4)nc23)CC1` [Example 2-278, 4,4,4-trifluoro-1-[4-[2-[4-[4-(4-pyridyl)-1,4-diazepane-1-carbonyl]anilino]-[1,2,4]triazolo[1,5-a]pyridin-8-yl]-3,6-dihydro-2H-pyridin-1-yl]butan-1-one], the IC50 stood at 39.3 nM.

Take `O=C(CCC(F)(F)F)N1CC=C(c2cccn3nc(Nc4ccc(C(=O)N(CCO)Cc5cccnc5)cc4)nc23)CC1` [Example 2-279, N-(2-hydroxyethyl)-N-(3-pyridylmethyl)-4-[[8-[1-(4,4,4-trifluorobutanoyl)-3,6-dihydro-2H-pyridin-4-yl]-[1,2,4]triazolo[1,5-a]pyridin-2-yl]amino]benzamide]: the IC50 was 38.8 nM. Consider `O=C(CCC(F)(F)F)N1CC=C(c2cccn3nc(Nc4ccc(C(=O)N5CCCCC5c5cccnc5)cc4)nc23)CC1` (stereo not shown) [Example 2-280, 4,4,4-trifluoro-1-[4-[2-[4-[2-(3-pyridyl)piperidine-1-carbonyl]anilino]-[1,2,4]triazolo[1,5-a]pyridin-8-yl]-3,6-dihydro-2H-pyridin-1-yl]butan-1-one], for which the IC50 amounted to 9.5 nM.

`CN1CCC(N(C)C(=O)c2ccc(Nc3nc4c(C5=CCN(C(=O)C6CCCC6)CC5)cccn4n3)cc2)CC1` [Example 2-281, 4-[[8-[1-(cyclopentanecarbonyl)-3,6-dihydro-2H-pyridin-4-yl]-[1,2,4]triazolo[1,5-a]pyridin-2-yl]amino]-N-methyl-N-(1-methyl-4-piperidyl)benzamide]: the IC50 turned out to be 39.4 nM. On to `CN1CCC(N(C)C(=O)c2ccc(Nc3nc4c(C5=CCN(C(=O)OC6COC6)CC5)cccn4n3)cc2)CC1` [Example 2-283, oxetan-3-yl-4-[2-[4-[methyl-(1-methyl-4-piperidyl)carbamoyl]anilino]-[1,2,4]triazolo[1,5-a]pyridin-8-yl]-3,6-dihydro-2H-pyridine-1-carboxylate], for which the half-inhibitory concentration (IC50) amounted to 54 nM. In the case of `CN1CCC(N(C)C(=O)c2ccc(Nc3nc4c(C5=CCN(c6ccccc6)CC5)cccn4n3)cc2)CC1` [Example 2-284, N-methyl-N-(1-methyl-4-piperidyl)-4-[[8-(1-phenyl-3,6-dihydro-2H-pyridin-4-yl)-[1,2,4]triazolo[1,5-a]pyridin-2-yl]amino]benzamide], the concentration for half-maximal inhibition (IC50) is 163 nM. As for `CN1CCC(N(C)C(=O)c2ccc(Nc3nc4c(C5=CCN(C(=O)N6CC7(COC7)C6)CC5)cccn4n3)cc2)CC1` [Example 2-286, N-methyl-N-(1-methyl-4-piperidyl)-4-[[8-[1-(2-oxa-6-azaspiro[3.3]heptane-6-carbonyl)-3,6-dihydro-2H-pyridin-4-yl]-[1,2,4]triazolo[1,5-a]pyridin-2-yl]amino]benzamide], the half-maximal inhibitory concentration (IC50) amounted to 1750 nM.

As to `CN1CCC(N(C)C(=O)c2ccc(Nc3nc4c(C5=CCN(C(=O)CCC#N)CC5)cccn4n3)cc2)CC1` [Example 2-287, 4-[[8-[1-(3-cyanopropanoyl)-3,6-dihydro-2H-pyridin-4-yl]-[1,2,4]triazolo[1,5-a]pyridin-2-yl]amino]-N-methyl-N-(1-methyl-4-piperidyl)benzamide], the half-inhibitory concentration (IC50) is 248 nM.

The IC50 is the midpoint of a concentration-inhibition curve.

(Values after patent US9873709B2 (priority 2013, dated 2018).)
